Measurements reported in PubChem BioAssay AID1919016 (Molecular Pharmacology Branch, DTP, NCI, 2023).
Each block holds one compound with its values, some of them ahead of it.

Tested on: NCI-H196 complex spheroid growth, percent test/control
Test: Anticancer human tumor NCI-H196 cell line growth inhibition [AhR];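 note: seven days of drug exposure starting three days after plating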;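 for viability, T/C: 100% = DMSO vehicle control wells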
Conditions: for IC50: curve of first compound; for viability, T/C: stronger effect = lower value
In short: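 Agents were dosed in half-log steps down from roughly clinical Cmax, or from 10 microM where Cmax was unknown, alone and with AhR antagonists. Read-out: percent test/control growth of tumor spheroids containing HUVEC and MSC stromal cells.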

[1] = second compound 0.1 µM, first compound 0.0316 µM
[2] = second compound 0.1 µM, first compound 0.1 µM
[3] = second compound 0.1 µM, first compound 0.316 µM
[4] = second compound 0.1 µM, first compound 1 µM
[5] = second compound 0.1 µM, first compound 3.16 µM
[6] = second compound 0.1 µM, first compound 10 µM
[7] = second compound 0.316 µM, first compound 0.0316 µM
[8] = second compound 0.316 µM, first compound 0.1 µM
[9] = second compound 0.316 µM, first compound 0.316 µM
[10] = second compound 0.316 µM, first compound 1 µM
[11] = second compound 0.316 µM, first compound 3.16 µM
[12] = second compound 0.316 µM, first compound 10 µM
[13] = second compound 1 µM, first compound 0.0316 µM
[14] = second compound 1 µM, first compound 0.1 µM
[15] = second compound 1 µM, first compound 0.316 µM
[16] = second compound 1 µM, first compound 1 µM
[17] = second compound 1 µM, first compound 3.16 µM
[18] = second compound 1 µM, first compound 10 µM
[19] = second compound 3.16 µM, first compound 0.0316 µM
[20] = second compound 3.16 µM, first compound 0.1 µM
[21] = second compound 3.16 µM, first compound 0.316 µM
[22] = second compound 3.16 µM, first compound 1 µM
[23] = second compound 3.16 µM, first compound 3.16 µM
[24] = second compound 3.16 µM, first compound 10 µM
[25] = second compound 10 µM, first compound 0.0316 µM
[26] = second compound 10 µM, first compound 0.1 µM
[27] = second compound 10 µM, first compound 0.316 µM
[28] = second compound 10 µM, first compound 1 µM
[29] = second compound 10 µM, first compound 3.16 µM
[30] = second compound 10 µM, first compound 10 µM
[31] = second compound 0.1 µM, first compound 0.00949 µM
[32] = second compound 0.1 µM, first compound 0.03 µM
[33] = second compound 0.1 µM, first compound 0.0949 µM
[34] = second compound 0.1 µM, first compound 0.3 µM
[35] = second compound 0.316 µM, first compound 0.00949 µM
[36] = second compound 0.316 µM, first compound 0.03 µM
[37] = second compound 0.316 µM, first compound 0.0949 µM
[38] = second compound 0.316 µM, first compound 0.3 µM
[39] = second compound 1 µM, first compound 0.00949 µM
[40] = second compound 1 µM, first compound 0.03 µM
[41] = second compound 1 µM, first compound 0.0949 µM
[42] = second compound 1 µM, first compound 0.3 µM
[43] = second compound 3.16 µM, first compound 0.00949 µM
[44] = second compound 3.16 µM, first compound 0.03 µM
[45] = second compound 3.16 µM, first compound 0.0949 µM
[46] = second compound 3.16 µM, first compound 0.3 µM
[47] = second compound 10 µM, first compound 0.00949 µM
[48] = second compound 10 µM, first compound 0.03 µM
[49] = second compound 10 µM, first compound 0.0949 µM
[50] = second compound 10 µM, first compound 0.3 µM

SMILES: CC1(C)CCC(CN2CCN(c3ccc(C(=O)NS(=O)(=O)c4ccc(NCC5CCOCC5)c([N+](=O)[O-])c4)c(Oc4cnc5[nH]ccc5c4)c3)CC2)=C(c2ccc(Cl)cc2)C1 + Cc1ccccc1N=Nc1ccc(NC(=O)c2ccnn2C)c(C)c1
- IC50 (second compound 0.1 µM): > 10 µM
- IC50 (second compound 0.316 µM): > 10 µM
- IC50 (second compound 1 µM): > 10 µM
- IC50 (second compound 3.16 µM): > 10 µM
- IC50 (second compound 10 µM): > 10 µM
- viability, T/C [1]: 111%
- viability, T/C [2]: 109%
- viability, T/C [3]: 109%
- viability, T/C [4]: 97%
- viability, T/C [5]: 115%
- viability, T/C [6]: 66%
- viability, T/C [7]: 101%
- viability, T/C [8]: 106%
- viability, T/C [9]: 99.9%
- viability, T/C [10]: 102%
- viability, T/C [11]: 108%
- viability, T/C [12]: 74.9%
- viability, T/C [13]: 100%
- viability, T/C [14]: 107%
- viability, T/C [15]: 108%
- viability, T/C [16]: 102%
- viability, T/C [17]: 102%
- viability, T/C [18]: 75.5%
- viability, T/C [19]: 104%
- viability, T/C [20]: 111%
- viability, T/C [21]: 107%
- viability, T/C [22]: 104%
- viability, T/C [23]: 104%
- viability, T/C [24]: 67.2%
- viability, T/C [25]: 95.6%
- viability, T/C [26]: 99.2%
- viability, T/C [27]: 100%
- viability, T/C [28]: 99.8%
- viability, T/C [29]: 100%
- viability, T/C [30]: 74.6%

SMILES: CCN(c1cc(-c2ccc(CN3CCOCC3)cc2)cc(C(=O)NCc2c(C)cc(C)[nH]c2=O)c1C)C1CCOCC1 + Cc1ccccc1N=Nc1ccc(NC(=O)c2ccnn2C)c(C)c1
- IC50 (second compound 0.1 µM): > 3 µM
- IC50 (second compound 0.316 µM): > 3 µM
- IC50 (second compound 1 µM): > 3 µM
- IC50 (second compound 3.16 µM): > 3 µM
- IC50 (second compound 10 µM): > 3 µM
- viability, T/C [31]: 95%
- viability, T/C [32]: 104%
- viability, T/C [33]: 103%
- viability, T/C [34]: 104%
- viability, T/C (second compound 0.1 µM, first compound 0.949 µM): 90.2%
- viability, T/C (second compound 0.1 µM, first compound 3 µM): 89.6%
- viability, T/C [35]: 104%
- viability, T/C [36]: 99.2%
- viability, T/C [37]: 102%
- viability, T/C [38]: 97.3%
- viability, T/C (second compound 0.316 µM, first compound 0.949 µM): 94.7%
- viability, T/C (second compound 0.316 µM, first compound 3 µM): 96.3%
- viability, T/C [39]: 98.6%
- viability, T/C [40]: 98.1%
- viability, T/C [41]: 111%
- viability, T/C [42]: 103%
- viability, T/C (second compound 1 µM, first compound 0.949 µM): 101%
- viability, T/C (second compound 1 µM, first compound 3 µM): 107%
- viability, T/C [43]: 93%
- viability, T/C [44]: 103%
- viability, T/C [45]: 105%
- viability, T/C [46]: 98.1%
- viability, T/C (second compound 3.16 µM, first compound 0.949 µM): 93.2%
- viability, T/C (second compound 3.16 µM, first compound 3 µM): 96.3%
- viability, T/C [47]: 89.9%
- viability, T/C [48]: 97.8%
- viability, T/C [49]: 92.9%
- viability, T/C [50]: 89.7%
- viability, T/C (second compound 10 µM, first compound 0.949 µM): 90.1%
- viability, T/C (second compound 10 µM, first compound 3 µM): 102%

SMILES: NS(=O)(=O)OCC1CC(n2ccc3c(NC4CCc5ccccc54)ncnc32)CC1O (stereo not given) + Cc1ccccc1N=Nc1ccc(NC(=O)c2ccnn2C)c(C)c1
- IC50 (second compound 0.1 µM): > 10 µM
- IC50 (second compound 0.316 µM): > 10 µM
- IC50 (second compound 1 µM): > 10 µM
- IC50 (second compound 3.16 µM): > 10 µM
- IC50 (second compound 10 µM): 2.07 µM
- viability, T/C [1]: 83.7%
- viability, T/C [2]: 84.2%
- viability, T/C [3]: 76.6%
- viability, T/C [4]: 55.9%
- viability, T/C [5]: 70.2%
- viability, T/C [6]: 70%
- viability, T/C [7]: 79.7%
- viability, T/C [8]: 81.2%
- viability, T/C [9]: 81.5%
- viability, T/C [10]: 67.4%
- viability, T/C [11]: 74.6%
- viability, T/C [12]: 61%
- viability, T/C [13]: 90.1%
- viability, T/C [14]: 87.6%
- viability, T/C [15]: 85.9%
- viability, T/C [16]: 60.6%
- viability, T/C [17]: 73.7%
- viability, T/C [18]: 60.8%
- viability, T/C [19]: 82.4%
- viability, T/C [20]: 90.7%
- viability, T/C [21]: 81.6%
- viability, T/C [22]: 61.5%
- viability, T/C [23]: 60.9%
- viability, T/C [24]: 58.8%
- viability, T/C [25]: 83.8%
- viability, T/C [26]: 87.1%
- viability, T/C [27]: 68.2%
- viability, T/C [28]: 55.5%
- viability, T/C [29]: 46.7%
- viability, T/C [30]: 47.4%

Now from value to compound, other results behind:

- IC50 (second compound 0.1 µM): > 0.1 µM
- IC50 (second compound 0.316 µM): > 0.1 µM
- IC50 (second compound 1 µM): > 0.1 µM
- IC50 (second compound 3.16 µM): > 0.1 µM
- IC50 (second compound 10 µM): > 0.1 µM
SMILES: Cn1ncnc1C1c2n[nH]c(=O)c3cc(F)cc(c23)NC1c1ccc(F)cc1 (stereo not given) + Cc1ccccc1N=Nc1ccc(NC(=O)c2ccnn2C)c(C)c1
- viability, T/C (second compound 0.1 µM, first compound 0.000316 µM): 96.3%
- viability, T/C (second compound 0.1 µM, first compound 0.001 µM): 112%
- viability, T/C (second compound 0.1 µM, first compound 0.00316 µM): 105%
- viability, T/C (second compound 0.1 µM, first compound 0.01 µM): 101%
- viability, T/C [1]: 102%
- viability, T/C [2]: 103%
- viability, T/C (second compound 0.316 µM, first compound 0.000316 µM): 108%
- viability, T/C (second compound 0.316 µM, first compound 0.001 µM): 107%
- viability, T/C (second compound 0.316 µM, first compound 0.00316 µM): 108%
- viability, T/C (second compound 0.316 µM, first compound 0.01 µM): 106%
- viability, T/C [7]: 101%
- viability, T/C [8]: 104%
- viability, T/C (second compound 1 µM, first compound 0.000316 µM): 102%
- viability, T/C (second compound 1 µM, first compound 0.001 µM): 102%
- viability, T/C (second compound 1 µM, first compound 0.00316 µM): 109%
- viability, T/C (second compound 1 µM, first compound 0.01 µM): 107%
- viability, T/C [13]: 102%
- viability, T/C [14]: 106%
- viability, T/C (second compound 3.16 µM, first compound 0.000316 µM): 94.2%
- viability, T/C (second compound 3.16 µM, first compound 0.001 µM): 108%
- viability, T/C (second compound 3.16 µM, first compound 0.00316 µM): 112%
- viability, T/C (second compound 3.16 µM, first compound 0.01 µM): 98.2%
- viability, T/C [19]: 93.5%
- viability, T/C [20]: 102%
- viability, T/C (second compound 10 µM, first compound 0.000316 µM): 94.2%
- viability, T/C (second compound 10 µM, first compound 0.001 µM): 102%
- viability, T/C (second compound 10 µM, first compound 0.00316 µM): 96.7%
- viability, T/C (second compound 10 µM, first compound 0.01 µM): 94.7%
- viability, T/C [25]: 92.8%
- viability, T/C [26]: 92.6%

- IC50 (second compound 0.1 µM): > 0.3 µM
- IC50 (second compound 0.316 µM): > 0.3 µM
- IC50 (second compound 1 µM): > 0.3 µM
- IC50 (second compound 3.16 µM): > 0.3 µM
- IC50 (second compound 10 µM): > 0.3 µM
SMILES: Nc1ncn(C2CC(O)C(CO)S2)c(=O)n1 (stereo not given) + Cc1ccccc1N=Nc1ccc(NC(=O)c2ccnn2C)c(C)c1
- viability, T/C (second compound 0.1 µM, first compound 0.000949 µM): 95%
- viability, T/C (second compound 0.1 µM, first compound 0.003 µM): 93.4%
- viability, T/C [31]: 99.1%
- viability, T/C [32]: 96.8%
- viability, T/C [33]: 102%
- viability, T/C [34]: 101%
- viability, T/C (second compound 0.316 µM, first compound 0.000949 µM): 105%
- viability, T/C (second compound 0.316 µM, first compound 0.003 µM): 96.2%
- viability, T/C [35]: 104%
- viability, T/C [36]: 96%
- viability, T/C [37]: 101%
- viability, T/C [38]: 95.4%
- viability, T/C (second compound 1 µM, first compound 0.000949 µM): 97.6%
- viability, T/C (second compound 1 µM, first compound 0.003 µM): 89.9%
- viability, T/C [39]: 97.9%
- viability, T/C [40]: 87.3%
- viability, T/C [41]: 91%
- viability, T/C [42]: 104%
- viability, T/C (second compound 3.16 µM, first compound 0.000949 µM): 89.3%
- viability, T/C (second compound 3.16 µM, first compound 0.003 µM): 102%
- viability, T/C [43]: 100%
- viability, T/C [44]: 93.7%
- viability, T/C [45]: 97.7%
- viability, T/C [46]: 99.5%
- viability, T/C (second compound 10 µM, first compound 0.000949 µM): 85.1%
- viability, T/C (second compound 10 µM, first compound 0.003 µM): 82.4%
- viability, T/C [47]: 86.2%
- viability, T/C [48]: 86.2%
- viability, T/C [49]: 90.5%
- viability, T/C [50]: 92.1%
